Experimental data as given in PubChem BioAssay (NCI).
Values joined by “and” are separate entries in the source; they are usually repeats but may differ in a detail not shown here. Identical values can stand only once.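 96-well plates; 48 h exposure; 5 concentrations. Endpoints by linear interpolation between flanking doses. Not reached: highest tested concentration assigned. At the GI50, growth is halved. TGI marks complete inhibition of growth.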

Experiments:
Assay in all cases: NCI anticancer screen, dose series, 48 h
[1] = system: XF 498 CNS
[2] = system: HOP-18 NSCLC
[3] = system: M19-MEL melanoma
[4] = system: DLD-1 colon
[5] = system: DMS 114 small cell lung
[6] = system: MDA-N
[7] = system: SNB-78 CNS
[8] = system: KM20L2 colon
[9] = system: RXF-631 renal
[10] = system: SN12K1 renal

Row | Structure (SMILES) | TGI [1] | TGI [2] | TGI [3] [µM] | TGI [4] | TGI [5] [µM] | TGI [6] [µM] | TGI [7] | TGI [8] | also measured
1 | OCC1=CC(NC2CC(CO)C(O)C(O)C2O)C(O)C(O)C1O (configuration not stated) | > 100 µM | > 100 µM | > 100 | > 100 µM | > 100 |  |  |  | 
2 | COc1cccc(C2c3cc4c(cc3OC(C)(N3CCCC3)C2C)OCO4)c1O (configuration not stated) |  |  |  |  |  | 5.81 |  |  | 
3 | COC(=O)/C(C#N)=C1\NC(=O)c2ccccc21 |  | > 100 µM | > 100 | > 100 µM | > 100 |  | > 100 µM | > 100 µM | 
4 | COC(=O)CC[N+]1=CCC(c2ccccc2)(c2ccccc2)O1 |  |  |  |  |  | > 100 |  |  | 
5 | O=[N+]([O-])c1ccc2c(c1)/C(=N/N=C1c3ccccc3Cc3ccccc31)c1cc([N+](=O)[O-])cc([N+](=O)[O-])c1-2 |  |  |  |  |  | 9.38 |  |  | 
6 | Cc1cc(NS(=O)(=O)c2ccc(Nc3c4ccccc4nc4c(C(=O)N5CCN(CCOS(C)(=O)=O)CC5)cccc34)cc2)no1 | > 100 µM |  | > 100 | > 100 µM | > 100 |  | > 100 µM | > 100 µM | 
7 | COc1ccc(CC2c3cc4c(cc3CCN2C)OCO4)c(C=O)c1OC (configuration not stated) |  |  |  |  |  | > 100 |  |  | 
8 | CNS(=O)(=O)NNS(=O)(=O)c1ccccc1 | > 100 µM | > 100 µM | > 100 | > 100 µM | > 100 |  |  | > 100 µM | 
9 | O=C(Nc1nc2ccc([N+](=O)[O-])cc2s1)C(=O)C(C1OC(=O)c2ccccc21)[N+](=O)[O-] (configuration not stated) | > 100 µM |  | > 100 | > 100 µM |  |  | > 100 µM | > 100 µM | TGI [9]: > 100 µM
10 | Cc1ccc(S(=O)(=O)OC[C@@H]2CO2)cc1 |  | > 100 µM | > 100 | > 100 µM |  |  | > 100 µM | > 100 µM | TGI [9]: > 100 µM
11 | COc1ccccc1N1C(=O)C2c3[nH]c4ccccc4c3C3CCC(C(C)(C)C)CC3C2C1=O (configuration not stated) | > 100 µM | > 100 µM | > 100 | > 100 µM | > 100 |  | > 100 µM | > 100 µM | 
12 | O=C(Nc1ccccc1)c1c(O)[nH]c(=S)[nH]c1=O | 19.5 µM and 155 µM | 118 µM and 184 µM | 118 | 90 µM and > 250 µM | 69 | 125 | 124 µM and > 250 µM | 125 µM and > 250 µM | GI50 [1]: 8.86 µM and 61.7 µM; GI50 [7]: 97.7 µM; GI50 [10]: 25.2 µM; TGI [10]: 51.8 µM and 75.1 µM; GI50 [2]: 17.3 µM; GI50 [8]: 87.2 µM; GI50 [4]: 109 µM
13 | COc1cc2ccnc([C@@H](OC(=O)c3ccccc3)c3ccc(OC)c(OC)c3OC)c2cc1OC |  | > 100 µM | > 100 | 80.2 µM | > 100 |  | > 100 µM | > 100 µM | TGI [9]: > 100 µM
14 | CCn1c(C)nn2c(=O)c3ccccc3nc2c1=O | > 100 µM | > 100 µM | > 100 | > 100 µM | > 100 |  | > 100 µM | > 100 µM | 
15 | CC1(C)C(=O)/C=C\C(=O)C(C)(C)C2=CC=C(O2)C(C)(C)C(=O)/C=C\C(=O)C(C)(C)C2=CC=C1O2 | > 100 µM | > 100 µM | > 100 |  |  |  | > 100 µM | > 100 µM | 
16 | CC(=O)[CH-]C(=O)c1ccccc1.CC(=O)[CH-]C(=O)c1ccccc1.CN(C)c1ccc([O-])cc1.CN(C)c1ccc([O-])cc1.Cl.[Ti+4] |  | > 31.6 µM | 26.4 | > 31.6 µM |  |  |  | > 31.6 µM | GI50 [2]: 23.1 µM; GI50 [3]: 15.1 µM; GI50 [8]: 20.4 µM; GI50 [4]: 15.6 µM
17 | Cc1c(C(=O)C/C(=N/NC(=O)c2ccccc2O)C(=O)Nc2ccccc2C(C)C)[n+](=O)c2ccccc2n1[O-] | > 100 µM | > 100 µM | > 100 | > 100 µM | 60.8 |  | > 100 µM | > 100 µM | 
18 | COC([CH2][Hg][n]1cnc2c1c(=O)n(C)c(=O)n2C)CN1C(=O)c2ccccc2S1(=O)=O (configuration not stated) |  |  |  |  |  | > 100 |  |  | GI50 [6]: > 100 µM
19 | CCOC(=O)Cn1c(C(F)(F)F)nc2nc(Cl)c(Cl)nc21 |  |  |  |  |  | > 100 |  |  | 
20 | Cc1nc2c(ccc3ncccc32)[nH]1 |  | > 100 µM | > 100 | > 100 µM | > 100 |  |  | > 100 µM | 
21 | CC(C)=CCC\C(C)=C/C=C/C(C)=C\C=C\C(C)=C/C=C/C=C(C)\C=C\C=C(C)/C=C/C=C(/C)CCC=C(C)C |  |  |  |  |  | > 100 |  |  | 
22 | CCOC(=O)C(C)(C)Oc1ccc2c(-c3ccccc3)cc(=O)oc2c1 | 47.9 µM |  | 98 | > 100 µM | 64.1 |  |  | > 100 µM | 
23 | O=C(O)CCC(NC(=O)c1ccc(Nc2nc3ccccc3nc2-c2cccs2)cc1)C(=O)O (configuration not stated) | > 100 µM | > 100 µM | > 100 | > 100 µM | > 100 |  | > 100 µM | > 100 µM | TGI [9]: > 100 µM
